In data set [1] the test system is M. smegmatis. The data set can be described thus: MIC determination (resazurin) against M. smegmatis. The format is cell-based, M. smegmatis mc^2155. To be noted: Mycolicibacterium smegmatis; lowest concentration reducing growth to 1% or less; 21 h + 3 h resazurin; N = 3.
Another data set has as its system E. faecium E745. The data set can be described thus: microbe, parasite or virus in culture. The format is cell-based. To be noted: Enterococcus faecium, E745, 24 h, read-out: MIC99 E. faecium E745.
Data set [2] relates to M. smegmatis. The data set can be described thus: Ethidium bromide accumulation assay in M. smegmatis. To be noted: analogues 100 µM, verapamil 102 µM, with glucose. In kind it is cell-based.
Data set [3] concerns M. smegmatis. The data set can be described thus: Ethidium bromide efflux assay in M. smegmatis. In kind it is cell-based. To be noted: analogues 100 µM, verapamil 102 µM, with glucose.
Data set [4] concerns M. bovis BCG. The format is cell-based. To be noted: analogues 100 µM, verapamil 102 µM, with glucose.
For data set [5], the system named is M. bovis BCG. In kind it is cell-based. Particulars: analogues 100 µM, verapamil 102 µM, with glucose. This is another data set of the same source.
The next data set concerns dopamine transporter. Also noted: method as in PMID 28274674. Particulars: human embryonic kidney 293 cells; 20 nM [3H] dopamine over 5 min at 37 °C; read-out: IC50 against the dopamine transporter; cited from earlier work.
A further data set deals with Streptococcus pneumoniae. Set-up: method as in PMID 36982905. Particulars: cited from earlier work.
For data set [6] the following is noted: three patients with structural heart disease; cited from earlier work.

In brackets after ≈: the same amount, converted by molar mass.

As usually defined, the IC50 is the concentration that gives 50% inhibition. With `Fc1ccc(C(OCCN2CCN(CCCc3ccccc3)CC2)c2ccc(F)cc2)cc1` [vanoxerine, 1-[2-[Bis(4-fluorophenyl)methoxy]ethyl]-4-(3-phenylpropyl)piperazine, reference compound], the MIC99 in the data set with M. smegmatis [1] came to 50 µM; in the data set on E. faecium E745, 44 µM (≈ 19.8 µg/mL). The “% Change in fluorescence (accumulation)” value in the data set with M. smegmatis [2] (end of 60 min assay) is on record as 299 ± 3%; with M. bovis BCG [4] (end of 60 min assay) it was 48 ± 3%. Also, the “Rate of accumulation (ethidium bromide)” value in the data set with M. smegmatis [2] (rate from 5–14 minutes) was determined as 3000 ± 130 RFUs/min; in the data set with M. bovis BCG [4] (rate from 5–14 minutes), 490 ± 800 RFUs/min. Also, the “% Change in fluorescence (efflux)” value in the data set on M. smegmatis [3] (end of 60 min assay) was “–11 ± 0.5%”; in the data set on M. bovis BCG [5] (end of 60 min assay), “–15 ± 1%”. Besides, the entries for the “Rate of efflux (ethidium bromide)” value in the data set on M. smegmatis [3] (rate from 0–9 minutes) and in the data set with M. bovis BCG [5] (rate from 0–9 minutes) were “–1100 ± 500 RFUs/min” and “–1100 ± 950 RFUs/min”, respectively. In addition, the IC50 with dopamine transporter was […]. Also, the “activity against Streptococcus pneumoniae (in words)” value in the data set on Streptococcus pneumoniae is “inhibited Streptococcus pneumoniae”. Also, the “adverse cardiac event in phase III clinical trial” value in data set [6] was “caused ventricular pro-arrhythmia”.

Source of the values: paper PMC11700842 (The Journal of Antibiotics, 2024).
